Results taken from ChEMBL document CHEMBL1123004, “Synthesis and antidepressant profiles of phenyl-substituted 2-amino- and 2-[(alkoxycarbonyl)amino]-1,4,5,6-tetrahydropyrimidines” (J Med Chem, 1985).
Activity calls are given as the source filed them. The calls are words filed in the database; no cut-off is given here.

Assays:
Rattus norvegicus [1] = organism: Rattus norvegicus; assay: Inhibition of uptake of Dopamine in rat brain slices; format: functional
Mus musculus [2] = organism: Mus musculus; assay: Antagonism of reserpine-induced hypothermia in mice; format: functional
Mus musculus [3] = assay: In vivo inhibition of uptake of nor epinephrine in mouse heart; format: functional
Rattus norvegicus [4] = organism: Rattus norvegicus; assay: Inhibition of uptake of 5-HT in rat brain slices; format: functional
Rattus norvegicus [5] = organism: Rattus norvegicus; assay: Inhibition of uptake of nor epinephrine in rat brain slices; format: functional
Mus musculus [6] = assay: Antagonism of reserpine-induced hypothermia in mice; I=Inactive at 10 mg/kg; format: functional, organism-based; parameters: dose 10 mg/kg
Mus musculus [7] = organism: Mus musculus; assay: animal or person
[8] = Lethal dose against mice after peroral administration; format: toxicity, organism-based; details: mouse, in vivo, po
Mus musculus [9] = organism: Mus musculus; assay: Antagonism of reserpine-induced hypothermia in mice; value given as 0.15-0.6; format: functional
Mus musculus [10] = organism: Mus musculus; assay: Antagonism of reserpine-induced hypothermia in mice value given as 0.01-0.15; format: functional
[11] = Lethal dose against mice after intraperitoneal administration; range = 31-53; format: toxicity, organism-based; details: mouse, in vivo, ip
[12] = Lethal dose against mice after peroral administration; RANGE = 50-122; format: toxicity, organism-based; details: mouse, in vivo, po
Mus musculus [13] = assay: In vivo inhibition of uptake of nor epinephrine in mouse heart; value ranges from 0.01-0.15; format: functional
Mus musculus [14] = assay: In vivo inhibition of uptake of nor epinephrine in mouse heart; value ranges from 3.1-14.6; format: functional
Mus musculus [15] = organism: Mus musculus; assay: Antagonism of reserpine-induced hypothermia in mice; Short acting; format: functional
Mus musculus [16] = assay: In vivo inhibition of uptake of nor epinephrine in mouse heart; value ranges from 0.01-0.14; format: functional
[17] = Lethal dose against mice after intraperitoneal administration; range = 25-28; format: toxicity, organism-based; details: mouse, in vivo, ip
[18] = Lethal dose against mice after peroral administration; range = 111-182; format: toxicity, organism-based; details: mouse, in vivo, po
Mus musculus [19] = organism: Mus musculus; assay: Antagonism of reserpine-induced hypothermia in mice; I=inactive at 10 mg/ Kg; format: functional, organism-based

Question: For CN(C)CCC=C1c2ccccc2CCc2ccccc21 [AMITRIPTYLINE], which IC50 (Rattus norvegicus [1]) is on record?
Answer: 12 µM

Question: What about the Min oral dose (Mus musculus [2]) of the same compound?
Answer: 0.15 mg/kg

Question: What about the ED50 (Mus musculus [3]) of the same compound?
Answer: 4.4 mg/kg

Question: What about the IC50 (Rattus norvegicus [4]) of the same compound?
Answer: 12 µM

Question: And the IC50 (Rattus norvegicus [5])?
Answer: 2.5 µM

Question: With COC(=O)NC1=NC(c2ccc(C)cc2)CCN1 (stereo unspecified) as the compound, how does the Min oral dose (Mus musculus [6]) read?
Answer: inactive

Question: Which Min oral dose (Mus musculus [2]) does the source give for COC(=O)NC1=NCC(c2ccc(C(C)C)cc2)CN1 (stereo unspecified) here?
Answer: 1 mg/kg

Question: With CNCCCN1c2ccccc2CCc2ccccc21 [DESIPRAMINE] as the compound, how does the IC50 (Rattus norvegicus [1]) read?
Answer: 12 µM

Question: And the IC50 (Rattus norvegicus [4])?
Answer: 12 µM

Question: What about the ED50 (Mus musculus [7]) of the same compound?
Answer: 1.4 mg/kg

Question: Which Min oral dose (Mus musculus [2]) does the source give for CC(C)OC(=O)NC1=NCC(c2ccccc2)CN1 (stereo unspecified) here?
Answer: 0.04 mg/kg

Question: And the LD50 [8]?
Answer: > 1000 mg/kg

Question: With COC(=O)NC1=NCC(c2ccccc2)CN1C (stereo unspecified) as the compound, how does the Min oral dose (Mus musculus [9]) read?
Answer: 0.15 mg/kg

Question: Which results are given for CCOC(=O)NC1=NCC(c2ccccc2)CN1 (stereo unspecified)?
Answer: Min oral dose (Mus musculus [2]): 0.04 mg/kg; LD50 [8]: > 1000 mg/kg

Question: For NC1=NCC(c2ccccc2)CN1 (stereo unspecified), which IC50 (Rattus norvegicus [1]) is on record?
Answer: 0.03 µM

Question: And the Min oral dose (Mus musculus [10])?
Answer: 0.15 mg/kg

Question: What about the IC50 (Rattus norvegicus [4]) of the same compound?
Answer: 1.6 µM

Question: What about the LD50 [11] of the same compound?
Answer: 42 mg/kg

Question: What about the LD50 [12] of the same compound?
Answer: 78 mg/kg

Question: What about the IC50 (Rattus norvegicus [5]) of the same compound?
Answer: 0.01 µM

Question: What about the ED50 (Mus musculus [13]) of the same compound?
Answer: 0.038 mg/kg

Question: With COC(=O)NC1=NC(c2ccc(OC)cc2)CCN1 (stereo unspecified) as the compound, how does the Min oral dose (Mus musculus [2]) read?
Answer: 10 mg/kg

Question: Which Min oral dose (Mus musculus [2]) does the source give for COC(=O)NC1=NC(c2ccccc2)CCN1C (stereo unspecified) here?
Answer: 10 mg/kg

Question: With COC(=O)NC1=NCC(c2ccc(F)cc2)CN1 (stereo unspecified) as the compound, how does the Min oral dose (Mus musculus [2]) read?
Answer: 0.04 mg/kg

Question: Which Min oral dose (Mus musculus [2]) does the source give for CN1CC(c2ccccc2)CN(C)C1=N (stereo unspecified) here?
Answer: 10 mg/kg

Question: Which Min oral dose (Mus musculus [2]) does the source give for COC(=O)NC1=NCC(c2cccc(Br)c2)CN1 (stereo unspecified) here?
Answer: 1 mg/kg

Question: Which Min oral dose (Mus musculus [2]) does the source give for NC1=NCC(c2cccc(Br)c2)CN1 (stereo unspecified) here?
Answer: 10 mg/kg

Question: Which IC50 (Rattus norvegicus [1]) does the source give for CN(C)CCCN1c2ccccc2CCc2ccccc21 [IMIPRAMINE] here?
Answer: 12 µM

Question: What about the ED50 (Mus musculus [14]) of the same compound?
Answer: 6.7 mg/kg

Question: What about the Min oral dose (Mus musculus [2]) of the same compound?
Answer: 0.15 mg/kg

Question: What about the IC50 (Rattus norvegicus [4]) of the same compound?
Answer: 16 µM

Question: And the IC50 (Rattus norvegicus [5])?
Answer: 4.6 µM

Question: Which Min oral dose (Mus musculus [15]) does the source give for COC(=O)NC1=NC(c2ccccc2)CCN1 (stereo unspecified) here?
Answer: 2.5 mg/kg

Question: For COC(=O)NC1=NC(c2ccc(F)cc2)CCN1 (stereo unspecified), which Min oral dose (Mus musculus [2]) is on record?
Answer: 1 mg/kg

Question: With CNC1=NCC(c2ccccc2)CN1C (stereo unspecified) as the compound, how does the Min oral dose (Mus musculus [2]) read?
Answer: 10 mg/kg

Question: For COC(=O)NC1=NC(c2ccccc2C(F)(F)F)CCN1 (stereo unspecified), which Min oral dose (Mus musculus [2]) is on record?
Answer: 10 mg/kg

Question: For CNC1=NCC(c2ccccc2)CN1 (stereo unspecified), which Min oral dose (Mus musculus [2]) is on record?
Answer: 1 mg/kg

Question: Which Min oral dose (Mus musculus [2]) does the source give for NC1=NC(c2ccccc2)CCN1 (stereo unspecified) here?
Answer: 10 mg/kg

Question: Which Min oral dose (Mus musculus [2]) does the source give for COC(=O)N=C1N(C)CC(c2ccccc2)CN1C (stereo unspecified) here?
Answer: 10 mg/kg

Question: Which Min oral dose (Mus musculus [2]) does the source give for COC(=O)NC1=NCC(c2ccccc2Cl)CN1 (stereo unspecified) here?
Answer: 10 mg/kg

Question: Which results are given for COC(=O)NC1=NCC(c2ccccc2)CN1 (stereo unspecified)?
Answer: IC50 (Rattus norvegicus [1]): 24 µM; Min oral dose (Mus musculus [2]): 0.0006 mg/kg; IC50 (Rattus norvegicus [4]): 160 µM; ED50 (Mus musculus [16]): 0.038 mg/kg; LD50 [17]: 27 mg/kg; IC50 (Rattus norvegicus [5]): 4.9 µM; LD50 [18]: 142 mg/kg

Question: For CCCOC(=O)NC1=NC(c2ccccc2)CCN1 (stereo unspecified), which Min oral dose (Mus musculus [19]) is on record?
Answer: inactive

Question: Which Min oral dose (Mus musculus [9]) does the source give for COC(=O)NC1=NCC(c2c(Cl)cccc2Cl)CN1 (stereo unspecified) here?
Answer: 0.6 mg/kg

Question: With COC(=O)NC1=NCC(c2ccc(Cl)cc2Cl)CN1 (stereo unspecified) as the compound, how does the Min oral dose (Mus musculus [2]) read?
Answer: 10 mg/kg
